Measured values reported in US12091426B2, “Bifunctional degraders of hematopoietic progenitor kinase and therapeutic uses thereof” (Nurix Therapeutics, Inc., priority 2021, dated 2024).

Target: T1, HPK1 (Homo sapiens, UniProt Q92918)
T1 construct: A HiBiT tag was introduced by CRISPR on the N terminus of HPK1 in Jurkat cells; host or cells: Jurkat cells (ATCC TIB-152), monoclonal line with CRISPR knock-in of HiBiT at the endogenous HPK1 locus
Experiment: HPK1 Cellular HiBit Degradation Assay
Format: cell-based
Details: HiBiT HPK1 Jurkat cells, 24 hrs; for DC50: concentration at which 50% of HPK1 was remaining, read-out: DC50 Category; for Dmax: Jurkat, maximum degradation vs DMSO vehicle control, read-out: Dmax Category
Method in brief: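 Degraders are dosed in an 11-point series (10 uM to 0.1 nM final) onto Jurkat cells carrying an N-terminal HiBiT tag on endogenous HPK1. After 24 hrs at 37° C, lysis-based HiBiT luminescence quantifies remaining HPK1 relative to vehicle, and curve fitting gives DC50 and Dmax.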

T1 sequence (Q92918 whole entry): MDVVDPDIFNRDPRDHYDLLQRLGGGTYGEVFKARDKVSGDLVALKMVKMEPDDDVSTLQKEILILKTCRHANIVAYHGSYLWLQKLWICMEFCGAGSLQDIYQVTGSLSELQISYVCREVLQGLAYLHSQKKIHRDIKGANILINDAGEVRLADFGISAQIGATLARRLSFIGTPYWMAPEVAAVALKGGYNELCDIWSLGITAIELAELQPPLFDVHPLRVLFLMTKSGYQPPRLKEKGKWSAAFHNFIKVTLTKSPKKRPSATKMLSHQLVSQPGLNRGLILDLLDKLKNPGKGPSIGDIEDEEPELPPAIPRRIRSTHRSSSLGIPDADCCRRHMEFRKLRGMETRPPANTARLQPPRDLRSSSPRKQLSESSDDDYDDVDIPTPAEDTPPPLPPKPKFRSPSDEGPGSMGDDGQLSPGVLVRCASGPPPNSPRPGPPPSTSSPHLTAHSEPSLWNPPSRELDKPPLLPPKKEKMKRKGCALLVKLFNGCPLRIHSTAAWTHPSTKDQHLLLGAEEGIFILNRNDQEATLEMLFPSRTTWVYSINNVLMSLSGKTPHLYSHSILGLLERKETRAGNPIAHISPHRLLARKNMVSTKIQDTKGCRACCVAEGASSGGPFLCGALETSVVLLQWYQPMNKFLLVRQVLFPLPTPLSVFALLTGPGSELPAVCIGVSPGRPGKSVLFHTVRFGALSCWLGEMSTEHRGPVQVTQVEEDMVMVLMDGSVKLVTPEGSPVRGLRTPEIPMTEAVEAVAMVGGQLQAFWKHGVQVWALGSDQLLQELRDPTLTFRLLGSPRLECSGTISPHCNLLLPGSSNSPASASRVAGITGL

DC50 | Dmax | Structure (SMILES)
100 to 500 nM | 50 to 70% | CC(C)n1cnc2cc(-c3ccc4c(c3)N([C@H]3C[C@@H](N5CCCCC5)C3)C(=O)C43CCN(C(=O)C4CCN(C(=O)[C@H]5CC[C@H](Nc6cncc(C7CCC(=O)NC7=O)c6)CC5)CC4)CC3)nc(Nc3ccccc3F)c21 (mixture of isomers) [Example 58, (3RS)-3-(5-{[(1R,4R)-4-{4-[(6-{4-[(2-fluorophenyl)amino]-3-(propan-2-yl)-3H-imidazo[4,5-c]pyridin-6-yl}-2-oxo-1-[(1S,3S)-3-(piperidin-1-yl)cyclobutyl]-1,2-dihydrospiro[indole-3,4′-piperidin]-1′-yl)carbonyl]piperidine-1-carbonyl}cyclohexyl]amino}pyridin-3-yl)piperidine-2,6-dione]
500 to 1000 nM | 50 to 70% | Cc1cc(F)c(Nc2nc(-c3ccc4c(c3)N([C@H]3C[C@@H](N5CCCCC5)C3)C(=O)C43CCN(C(=O)c4cc(C(=O)N5CCN(c6ccc7c(c6)C(=O)N(C6CCC(=O)NC6=O)C7=O)CC5)n(C)n4)CC3)cc3ncn(C(C)C)c23)cc1C(=O)NC(C)C (mixture of isomers) [Example 145, 5-[(6-{1′-[5-(4-{2-[(3RS)-2,6-dioxopiperidin-3-yl]-1,3-dioxo-2,3-dihydro-1H-isoindol-5-yl}piperazine-1-carbonyl)-1-methyl-1H-pyrazole-3-carbonyl]-2-oxo-1-[(1S,3S)-3-(piperidin-1-yl)cyclobutyl]-1,2-dihydrospiro[indole-3,4′-piperidin]-6-yl}-3-(propan-2-yl)-3H-imidazo[4,5-c]pyridin-4-yl)amino]-4-fluoro-2-methyl-N-(propan-2-yl)benzamide]
< 100 nM | > 85% | CC(C)n1cnc2cc(-c3ccc4c(c3)N([C@H]3C[C@@H](N5CCCCC5)C3)C(=O)C43CCN(C(=O)C4C5CN(C(=O)C6CCN(c7ccc(C8CCC(=O)NC8=O)cn7)CC6)CC54)CC3)nc(Nc3ccccc3F)c21 (mixture of isomers) [Example 39, (3RS)-3-[6-(4-{6-[(6-{4-[(2-fluorophenyl)amino]-3-(propan-2-yl)-3H-imidazo[4,5-c]pyridin-6-yl}-2-oxo-1-[(1S,3S)-3-(piperidin-1-yl)cyclobutyl]-1,2-dihydrospiro[indole-3,4′-piperidin]-1′-yl)carbonyl]-3-azabicyclo[3.1.0]hexane-3-carbonyl}piperidin-1-yl)pyridin-3-yl]piperidine-2,6-dione]
< 100 nM | 70 to 85% | CC(C)n1cnc2cc(-c3ccc4c(c3)N([C@H]3C[C@@H](N5CCCCC5)C3)C(=O)C43CCN(C(=O)[C@@H]4CCCN(C(=O)C5CCN(c6ccc(C7CCC(=O)NC7=O)cn6)CC5)C4)CC3)nc(NC3CC3)c21 (mixture of isomers) [Example 264, (3RS)-3-(6-{4-[(3R)-3-({6-[4-(cyclopropylamino)-3-(propan-2-yl)-3H-imidazo[4,5-c]pyridin-6-yl]-2-oxo-1-[(1S,3S)-3-(piperidin-1-yl)cyclobutyl]-1,2-dihydrospiro[indole-3,4′-piperidin]-1′-yl}carbonyl)piperidine-1-carbonyl]piperidin-1-yl}pyridin-3-yl)piperidine-2,6-dione]
< 100 nM | 70 to 85% | CC(C(=O)N1CCC2(CC1)C(=O)N([C@H]1C[C@@H](N3CCCCC3)C1)c1cc(-c3cc4ncn(C(C)C)c4c(NC4CC4)n3)ccc12)C1CCN(C(=O)C2CCN(c3ccc(C4CCC(=O)NC4=O)cn3)CC2)CC1 (mixture of isomers) [Example 187, (3RS)-3-(6-{4-[4-(1-{6-[4-(cyclopropylamino)-3-(propan-2-yl)-3H-imidazo[4,5-c]pyridin-6-yl]-2-oxo-1-[(1S,3S)-3-(piperidin-1-yl)cyclobutyl]-1,2-dihydrospiro[indole-3,4′-piperidin]-1′-yl}-1-oxopropan-2-yl)piperidine-1-carbonyl]piperidin-1-yl}pyridin-3-yl)piperidine-2,6-dione]
100 to 500 nM | 50 to 70% | CC(C)n1cnc2cc(-c3ccc4c(c3)N([C@H]3C[C@@H](N5CCCCC5)C3)C(=O)C43CCN(C(=O)C4(C)CCN(C(=O)C5CCN(c6ccc(C7CCC(=O)NC7=O)cn6)CC5)CC4)CC3)nc(N3CCCC3)c21 (stereo partly drawn) [Example 170, 3-(6-{4-[4-methyl-4-({2-oxo-6-[3-(propan-2-yl)-4-(pyrrolidin-1-yl)-3H-imidazo[4,5-c]pyridin-6-yl]-1-[(1S,3S)-3-(piperidin-1-yl)cyclobutyl]-1,2-dihydrospiro[indole-3,4′-piperidin]-1′-yl}carbonyl)piperidine-1-carbonyl]piperidin-1-yl}pyridin-3-yl)piperidine-2,6-dione]
< 100 nM | 70 to 85% | CC(C)n1cnc2cc(-c3ccc4c(c3)N([C@H]3C[C@@H](N5CCCCC5)C3)C(=O)C43CCN(C(=O)C4(C)CCN(C(=O)C5CCN(c6ccc(C7CCC(=O)NC7=O)nc6)CC5)CC4)CC3)nc(Nc3ccccc3F)c21 (mixture of isomers) [Example 119, (3RS)-3-[5-(4-{4-[(6-{4-[(2-fluorophenyl)amino]-3-(propan-2-yl)-3H-imidazo[4,5-c]pyridin-6-yl}-2-oxo-1-[(1S,3S)-3-(piperidin-1-yl)cyclobutyl]-1,2-dihydrospiro[indole-3,4′-piperidin]-1′-yl)carbonyl]-4-methylpiperidine-1-carbonyl}piperidin-1-yl)pyridin-2-yl]piperidine-2,6-dione]
< 100 nM | 70 to 85% | CC(C)n1cnc2cc(-c3ccc4c(c3)N([C@H]3C[C@@H](N5CCCCC5)C3)C(=O)C43CCN(C(=O)C4(C)CCN(C(=O)C5CCN(c6ccc(C7CCC(=O)NC7=O)cc6)CC5)CC4)CC3)nc(NC3CC3)c21 (mixture of isomers) [Example 111, (3RS)-3-(4-{4-[4-({6-[4-(cyclopropylamino)-3-(propan-2-yl)-3H-imidazo[4,5-c]pyridin-6-yl]-2-oxo-1-[(1S,3S)-3-(piperidin-1-yl)cyclobutyl]-1,2-dihydrospiro[indole-3,4′-piperidin]-1′-yl}carbonyl)-4-methylpiperidine-1-carbonyl]piperidin-1-yl}phenyl)piperidine-2,6-dione]
< 100 nM | 50 to 70% | CC(C)n1cnc2cc(-c3ccc4c(c3)N([C@H]3C[C@@H](N5CCCCC5)C3)C(=O)C43CCN(C(=O)C4CCN(C(=O)C5CCN(c6ccc(C7CCC(=O)NC7=O)cn6)CC5)CC4)CC3)nc(NC3CCOCC3)c21 (mixture of isomers) [Example 78, (3RS)-3-[6-(4-{4-[(6-{4-[(oxan-4-yl)amino]-3-(propan-2-yl)-3H-imidazo[4,5-c]pyridin-6-yl}-2-oxo-1-[(1S,3S)-3-(piperidin-1-yl)cyclobutyl]-1,2-dihydrospiro[indole-3,4′-piperidin]-1′-yl)carbonyl]piperidine-1-carbonyl}piperidin-1-yl)pyridin-3-yl]piperidine-2,6-dione]
< 100 nM | 70 to 85% | CC(C)n1cnc2cc(-c3ccc4c(c3)N([C@H]3C[C@@H](N5CCCCC5)C3)C(=O)C43CCN(C(=O)[C@@H]4CCN(C(=O)C5CCN(c6ncc(C7CCC(=O)NC7=O)cn6)CC5)C4)CC3)nc(Nc3ccccc3F)c21 (stereo partly drawn) [Example 158, 3-(2-(4-((R)-3-(6-(4-((2-fluorophenyl)amino)-3-isopropyl-3H-imidazo[4,5-c]pyridin-6-yl)-2-oxo-1-((1S,3S)-3-(piperidin-1-yl)cyclobutyl)spiro[indoline-3,4′-piperidine]-1′-carbonyl)pyrrolidine-1-carbonyl)piperidin-1-yl)pyrimidin-5-yl)piperidine-2,6-dione]
100 to 500 nM | 50 to 70% | CC(C)n1cnc2cc(-c3ccc4c(c3)N([C@H]3C[C@@H](N5CCCCC5)C3)C(=O)C43CCN(C(=O)C4CCN(C(=O)C5CCN(c6ccc(C(=O)NC7CCC(=O)NC7=O)nc6)CC5)CC4)CC3)nc(Nc3ccccc3F)c21 (mixture of isomers) [Example 83, N-[(3RS)-2,6-dioxopiperidin-3-yl]-5-(4-{4-[(6-{4-[(2-fluorophenyl)amino]-3-(propan-2-yl)-3H-imidazo[4,5-c]pyridin-6-yl}-2-oxo-1-[(1S,3S)-3-(piperidin-1-yl)cyclobutyl]-1,2-dihydrospiro[indole-3,4′-piperidin]-1′-yl)carbonyl]piperidine-1-carbonyl}piperidin-1-yl)pyridine-2-carboxamide]
< 100 nM | > 85% | CC(C)n1cnc2cc(-c3ccc4c(c3)N([C@H]3C[C@@H](N5CCCCC5)C3)C(=O)C43CCN(C(=O)[C@@H]4CCN(C(=O)[C@H]5CC[C@H](Oc6ccc(C7CCC(=O)NC7=O)cc6)CC5)C4)CC3)nc(Nc3ccccc3F)c21 (stereo partly drawn) [Example 14, 3-(4-{[(1R,4R)-4-[(3R)-3-[(6-{4-[(2-fluorophenyl)amino]-3-(propan-2-yl)-3H-imidazo[4,5-c]pyridin-6-yl}-2-oxo-1-[(1S,3S)-3-(piperidin-1-yl)cyclobutyl]-1,2-dihydrospiro[indole-3,4′-piperidin]-1′-yl)carbonyl]pyrrolidine-1-carbonyl]cyclohexyl]oxy}phenyl)piperidine-2,6-dione]

Structure (SMILES) | DC50 | Dmax
CC(C)n1cnc2cc(-c3ccc4c(c3)N([C@H]3C[C@@H](N5C6COCC5C6)C3)C(=O)C43CCN(C(=O)C4(C)CCN(C(=O)C5CCN(c6ccc(C7CCC(=O)NC7=O)cc6)CC5)CC4)CC3)nc(NC3CC3)c21 (mixture of isomers) [Example 195, (3RS)-3-(4-{4-[4-({6-[4-(cyclopropylamino)-3-(propan-2-yl)-3H-imidazo[4,5-c]pyridin-6-yl]-2-oxo-1-[(1S,3S)-3-{3-oxa-6-Azabicyclo[3.1.1]heptan-6-yl}cyclobutyl]-1,2-dihydrospiro[indole-3,4′-piperidin]-1′-yl}carbonyl)-4-methylpiperidine-1-carbonyl]piperidin-1-yl}phenyl)piperidine-2,6-dione] | 500 to 1000 nM | 50 to 70%
